From patent US12070457B2, “Substituted pyridines, pyridazines, pyrimidines, and 1,2,3-triazines as bruton's tyrosine kinase inhibitors” (HUTCHISON MEDIPHARMA LIMITED, priority 2020, dated 2024) come the findings set out here.

Each structure is given as a SMILES string.

Data set [1] is described as follows: Stability test in liver microsomes (mouse). The data set is classed as in vitro ADME. The conditions noted are these: mouse liver microsomes, 1 μM compound, 30 min. The source says: (§1) Example 5 Stability Test in Liver Microsomes
(§2) Both male CD-1 mouse pooled liver microsomes and male SD rat pooled liver microsomes were purchased from BioreclamationIVT Corporation, USA.
(§3) Phenacetin, glucose-6-phosphate dehydrogenase (G-6-PDH) and nicotinamide adenine dinucleotide phosphate (NADP) were all purchased from Sigma-Aldrich Corporation, USA. Glucose-6-phosphate (G-6-P) was purchased from Shanghai Eybridge Chemical Technology Co., Ltd.
(§4) Ten mM test compound stock solution: a certain amount of test compound was weighed, and dissolved with an appropriate volume of DMSO to prepare a stock solution with a concentration of 10 mM for use.
(§5) Reaction stopping solution: an appropriate amount of internal standard compound phenacetin was dissolved in acetonitrile to prepare a reaction stopping solution with a concentration of 1000 ng/mL for use at room temperature.
(§6) The test compound stock solution was diluted with an organic solvent (usually a mixture of acetonitrile, methanol and water with various ratios, depending on the solubility of the compound, if necessary, 1 N hydrochloric acid or 1 N sodium hydroxide would be added to facilitate solubilization) to the 0.1 mM (the final concentration of the compound in the reaction system was 1 μM) and the concentration percentage of the organic solvents in the incubation system no more than 1% (wherein the percentage of DMSO was required to be no more than 0.1%). An appropriate amount of 100 mM NADP, 500 mM G-6-P and 100 Unit/mL G-6-PDH were mixed and diluted with ultrapure water (the final system contains 1 mM NADP, 5 mM G-6-P and 1 Unit/mL G-6-PDH), pre-incubated in a 37° C. water bath for 10 minutes and then placed on ice for use as a NADPH regeneration solution. 20 mg/mL liver microsomes solution and 200 mM phosphate buffer was mixed, and diluted with ultrapure water to give a liver microsomes solution containing 2.5 mg/mL liver microsomes (the final concentration of the reaction system is 0.5 mg/mL) and 50 mM phosphate buffer. The diluted liver microsomes solution was mixed with 0.1 mM compound solution, a mixture of 100 mM EDTA, 300 mM MgCl2 solution, 200 mM phosphate buffer (the final system was 3 mM MgCl2, 1 mM EDTA and 50 mM phosphate buffer) and water in an appropriate volume was added. Finally, the NADPH regeneration solution was added, then the reaction solution was placed in a 37° C. water bath to start the reaction (the reaction time was 30 minutes), and the reaction was stopped by adding the ice-cold acetonitrile reaction stopping solution containing the internal standard. The 0-minute sample was not incubated in a 37° C. water bath, and its difference from the 30-minute sample further lies in that the ice-cold acetonitrile reaction stopping solution containing the internal standard was added first, and then the NADPH regeneration solution was added. The sample added with the reaction stopping internal standard solution was vortexed and mixed well, and then centrifuged at 4400 rpm for 10 minutes. The supernatant was taken and diluted ten times with 50% methanol for LC-MS/MS analysis.
(§7) LC-MS/MS was used to determine the concentration of the compound in the sample. The percentage of the remaining compound after 30 minutes of incubation comparing with that in the 0-minute sample was calculated using the peak area ratio of the compound to the internal standard as an indicator, to evaluate the metabolic stability of the compound.
(§8) Instrument: API4500, API4000 or LTQ Mass Spectrometer; the liquid phase is UHPLC system (Shimadzu LC-30 AD, model Nexra X2) including liquid delivery unit, column thermostat, detector and autosampler; or Agilent 1200 Binary Pump series HPLC and CTC Autosampler.
(§9) Chromatographic column: Waters XSELECT Hss T3 C18 (2.5 μm, 2.1×50 mm) or […] (5 μm, 2.0×50 mm)
(§10) Mobile phase: • A: water with 0.1% FA (formic acid) (with or without 0.1% ACN (acetonitrile)) • B: acetonitrile with 0.1% FA (formic acid).
(Liver microsomes are a subcellular fraction often used to study metabolism.)

A short description of data set [2]: Stability test in liver microsomes (rat). Format: in vitro ADME. The note with it: rat liver microsomes, 1 μM compound, 30 min.
Source text: as §1, §2, §3, §4, §5, §6, §7, §8, §9, §10

The nature of data set [3]: Study on in vivo pharmacokinetics in mice. Set-up: species or system mouse. The conditions noted are these: mice, intragastric, 10 mg/kg. The source says:
Example 6 Study on In Vivo Pharmacokinetics in Mice
Solutol HS15 was purchased from BASF, Germany, ethanol (anhydrous) was purchased from Nanjing Chemical Reagent Co., Ltd., physiological saline was purchased from Huayu (Wuxi) Pharmaceutical Co., Ltd., dimethyl sulfoxide (DMSO) and sodium carboxymethyl cellulose 800-1200 (CMC-Na) were purchased from Sinopharm Chemical Reagent Co., Ltd.
Preparation of ethanol/Solutol mixed solution (1:1, v/v): taking an appropriate amount of Solutol HS15 in a centrifuge tube and placing in a 37° C. water bath until dissolved, placing on the bench top to room temperature, taking 1 mL of Solutol in a centrifuge tube containing 1 mL of ethanol and mixing well to obtain the mixed solution.
Taking an appropriate amount of stock solution and placing in a blank centrifuge tube, adding an appropriate amount of ethanol/Solutol mixed solution prepared in advance, vortexing, then adding an appropriate amount of physiological saline, and mixing well until a transparent liquid.
3. Administration to Animals and Sample Collection:
Male ICR mice were purchased from Shanghai Lingchang Biotechnology Co., Ltd. 18 mice were randomly divided into intravenous administration group and intragastric administration group. The mice were fasted overnight before administration. The mice were withheld food but allowed to access water freely within 4 hours after administration, and allowed to freely access food and water after 4 hours. After anesthesia with isoflurane, blood was collected from the retroorbital venous plexus and placing in an centrifuge tube containing anticoagulant, and the centrifuge tube was stored in an box containing wet ice until the plasma was centrifuged.
The plasma samples were pre-treated and then analyzed by liquid chromatography-tandem mass spectrometry (LC-MS/MS), the instrument model was API5500. The analytical chromatographic column was Waters XSELECT HSS T3 C18 column (50×2.1 mm, 2.5 μm). In the mobile phases, deionized water containing 0.1% formic acid and 0.1% acetonitrile was used as the aqueous phase and acetonitrile containing 0.1% formic acid was used as the organic phase. The concentrations of the compound in the samples were determined as follows. Firstly, a standard curve was established, and the peak area ratios of the compound 19 to the internal standard in the standard curve were used as indexes. The theoretical concentrations of compound 19 and the peak area ratios of compound 19 to the internal standard were fitted with a quadratic regression equation to obtain the regression equation. The sample concentrations were calculated by measuring the peak area ratio of the compound of the test sample to the internal standard according to the standard curve.

The nature of data set [4]: Rat arthritis model induced by type II collagen (CIA). The data set is classed as in vivo. The note with it: 4 mg/kg oral once a day, CIA rats. Here is the method: Example 9 Therapeutic Effect of the Compound of the Present Invention on a Rat Arthritis Model Induced by Type II Collagen
An appropriate amount of bovine type II collagen (CII, Chondrex (Redmond, WA, USA), Cat #20021) was weighed and dissolved in 0.1 mole of acetic acid (SPGC Sinopharm Chemical Reagent Co., Ltd (Shanghai, P.R.China), Cat #: 10000218.), which was formulated into a solution with a concentration of 6 mg/mL, stirred at 4° C. overnight, and added with an equal volume of Freund's incomplete adjuvant (Sigma-Aldrich. (St. Louis, MO, USA), Cat #: SLBW0366.), fully emulsified to prepare an emulsion with a CII concentration of 3 mg/mL. […]
The paw volume was measured on day 8 after immunization, and the left and right hind paw volumes (V) were measured every day after the paw volume increase was detected. […]
The area under the curve (AUC) of the average paw volume change is the area under the curve of the arthrosis score change calculated by the trapezoid method, and the calculation formula is: AUCpaw volume=½×(APSd1+APSd2)λ(d2−d1)+½×(APSd2+APSd3)×(d3-d2)+. . . +½×(APSdn+APSd(n-1))×(dn−dn-1)
ED50 is calculated by XLfit software according to the AUC inhibition ratio of the area under the curve of the average paw volume change. […]

For the compound `C[C@H]1CN(C2COC2)CCN1c1ccc(Nc2cc(-c3ccnc(N4CCn5c(cc6c5CC(C)(C)C6)C4=O)c3CO)cn(C)c2=O)nc1` [GDC-0853, fenebrutinib, reference compound], in data set [1], the “MLM, percentage of remaining compound after 30 minutes of incubation” value turned out to be 76.3%. Further, the “RLM, percentage of remaining compound after 30 minutes of incubation” value in data set [2] was 81.0%. Besides, in data set [3], the T1/2 turned out to be 1.5 h. The C8 h in data set [3] (plasma at 8 h) was 143 ng/mL. Also, the “paw volume compared with vehicle control group” value in data set [4] is reported as “significantly reduced”.
